From patent US10392383B2, “3-(1H-benzo[d]imidazol-2-yl)-1H-pyrazolo[4,3-b]pyridines and therapeutic uses thereof” (Samumed, LLC, priority 2015, dated 2019) come the findings set out here.

The test system of experiment [1] is Wnt activity (Sp5-Luc reporter, Wnt-responsive promoter) in SW480 colon carcinoma cells. The experiment in a line: Wnt activity screening assay: Sp5-Luc reporter gene assay in SW480 cells. The experiment is classed as cell-based. Conditions: Homo sapiens, overnight incubation, 10-point curve starting from 10 μM. The procedure, abridged:
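Wnt-driven firefly luciferase in SW480 colon carcinoma cells reports pathway activity after overnight compound exposure (10 μM top concentration, 3-fold steps). Signal is normalized to DMSO controls.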

Experiment [2] deals with primary human mesenchymal stem cells (hMSCs). The experiment in a line: Induction of chondrogenesis in human mesenchymal stem cells (nodule staining with Rhodamine B / Nile Red). The experiment is classed as cell-based. Conditions: for Emax: TGF-β3 (10 ng/mL) as positive control, read-out: Max. Activity as % TGF-β3 activity; for EC50: concentration required to induce 50% levels of chondrogenesis vs TGF-β3, read-out: Conc (nM) of 50% TGF-β3 activity. The procedure, abridged: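 Primary hMSCs (passage 3–6) in incomplete chondrogenic induction medium were exposed 6 days at 37° C to compound (1:3 dilutions, 2700–10 nM in 96-well or 5000–2.2 nM in 384-well; 0.03% DMSO). Nodules stained with Rhodamine B/Nile Red were imaged; area normalized to DMSO wells for EC50, maximal activity and dose at maximum.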

`Fc1cccc(-c2cccc3[nH]c(-c4n[nH]c5ccc(-c6ccncc6)nc45)nc23)c1` [Compound 18, 3-(4-(3-Fluorophenyl)-1H-benzo[d]imidazol-2-yl)-5-(pyridin-4-yl)-1H-pyrazolo[4,3-b]pyridine] came in with an EC50 in experiment [1] of 1320 nM. Also, the Emax in experiment [2] is 39%.

`Cc1cn(-c2cccc3[nH]c(-c4n[nH]c5ccc(-c6cncc(NC(=O)CC(C)C)c6)nc45)nc23)cn1` [Compound 198, 3-Methyl-N-(5-(3-(4-(4-methyl-1H-imidazol-1-yl)-1H-benzo[d]imidazol-2-yl)-1H-pyrazolo[4,3-b]pyridin-5-yl)pyridin-3-yl)butanamide] yielded an EC50 in experiment [1] of 1040 nM. For the same compound, the Emax in experiment [2] came out at 44%.

For the compound `Cc1cn(-c2cccc3[nH]c(-c4n[nH]c5ccc(-c6cncc(NC(=O)C(C)(C)C)c6)nc45)nc23)cn1` [Compound 204, N-(5-(3-(4-(4-Methyl-1H-imidazol-1-yl)-1H-benzo[d]imidazol-2-yl)-1H-pyrazolo[4,3-b]pyridin-5-yl)pyridin-3-yl)pivalamide], the EC50 was determined as 1240 nM in experiment [1] and 10 nM in experiment [2]. Further, the Emax in experiment [2] was 78%.

`Cc1cn(-c2cccc3[nH]c(-c4n[nH]c5ccc(-c6cncc(CN7CCCC7)c6)nc45)nc23)cn1` [Compound 210, 3-(4-(4-Methyl-1H-imidazol-1-yl)-1H-benzo[d]imidazol-2-yl)-5-(5-(pyrrolidin-1-ylmethyl)pyridin-3-yl)-1H-pyrazolo[4,3-b]pyridine] yielded an EC50 in experiment [1] of 4110 nM. Also, in experiment [2], the Emax was 193% and the EC50 was found to be 7 nM.

`Cc1cn(-c2cccc3[nH]c(-c4n[nH]c5ccc(-c6cncc(NC(=O)C7CCC7)c6)nc45)nc23)cn1` [Compound 217, N-(5-(3-(4-(4-Methyl-1H-imidazol-1-yl)-1H-benzo[d]imidazol-2-yl)-1H-pyrazolo[4,3-b]pyridin-5-yl)pyridin-3-yl)cyclobutanecarboxamide]: in experiment [1], the EC50 is 2840 nM. Besides, the Emax in experiment [2] was found to be 32%.

Compound `c1cncc(-c2ccc3[nH]nc(-c4nc5ccccc5[nH]4)c3n2)c1` [Compound 256, 3-(1H-Benzo[d]imidazol-2-yl)-5-(pyridin-3-yl)-1H-pyrazolo[4,3-b]pyridine] registered an EC50 in experiment [1] of 5480 nM. Also, in experiment [2], the Emax stood at 85% and the EC50 turned out to be 10 nM.

The compound `Cc1ccncc1-c1ccc2[nH]nc(-c3nc4c(-c5ccsc5)cccc4[nH]3)c2n1` [Compound 285, 5-(4-Methylpyridin-3-yl)-3-(4-(thiophen-3-yl)-1H-benzo[d]imidazol-2-yl)-1H-pyrazolo[4,3-b]pyridine] registered an EC50 in experiment [1] of 986 nM. The Emax in experiment [2] came to 32%.

In experiment [1], `FC1(F)CCN(Cc2cncc(-c3ccc4[nH]nc(-c5nc6c(-c7ccsc7)cccc6[nH]5)c4n3)c2)C1` [Compound 306, 5-(5-((3,3-Difluoropyrrolidin-1-yl)methyl)pyridin-3-yl)-3-(4-(thiophen-3-yl)-1H-benzo[d]imidazol-2-yl)-1H-pyrazolo[4,3-b]pyridine] yielded an EC50 of 1650 nM. Further, the Emax in experiment [2] came out at 39%.

In turn, `CCNCc1cncc(-c2ccc3[nH]nc(-c4nc5c(-c6ccoc6)cccc5[nH]4)c3n2)c1` [Compound 314, N-((5-(3-(4-(Furan-3-yl)-1H-benzo[d]imidazol-2-yl)-1H-pyrazolo[4,3-b]pyridin-5-yl)pyridin-3-yl)methyl)ethanamine] displayed an EC50 in experiment [1] of 3250 nM. The Emax in experiment [2] was found to be 32%.

`CCC(=O)Nc1cncc(-c2ccc3[nH]nc(-c4nc5c(-c6cccs6)cccc5[nH]4)c3n2)c1` [Compound 337, N-(5-(3-(4-(Thiophen-2-yl)-1H-benzo[d]imidazol-2-yl)-1H-pyrazolo[4,3-b]pyridin-5-yl)pyridin-3-yl)propionamide] registered an EC50 in experiment [1] of 3520 nM. In addition, the Emax in experiment [2] was 57%.

As to `CN(C)c1cncc(-c2ccc3[nH]nc(-c4nc5c(-c6cccs6)cccc5[nH]4)c3n2)c1` [Compound 343, N,N-Dimethyl-5-(3-(4-(thiophen-2-yl)-1H-benzo[d]imidazol-2-yl)-1H-pyrazolo[4,3-b]pyridin-5-yl)pyridin-3-amine], in experiment [1], the EC50 came to 1720 nM. Also, in experiment [2], the Emax amounted to 83% and the EC50 came out at 100 nM.

Consider `CN(C)Cc1cncc(-c2ccc3[nH]nc(-c4nc5c(-c6cccs6)cccc5[nH]4)c3n2)c1` [Compound 349, N,N-dimethyl-1-(5-(3-(4-(thiophen-2-yl)-1H-benzo[d]imidazol-2-yl)-1H-pyrazolo[4,3-b]pyridin-5-yl)pyridin-3-yl)methanamine], for which the EC50 in experiment [1] was determined as 4100 nM; in experiment [2], 10 nM. Also, the Emax in experiment [2] was 51%.

With `Cc1ccc(-c2cccc3[nH]c(-c4n[nH]c5ccc(-c6cncc(N)c6)nc45)nc23)s1` [Compound 395, 5-(3-(4-(5-Methylthiophen-2-yl)-1H-benzo[d]imidazol-2-yl)-1H-pyrazolo [4,3-b]pyridin-5-yl)pyridin-3-amine], the EC50 in experiment [1] is 78 nM. Further, in experiment [2], the Emax stood at 88% and the EC50 was 10 nM.

In experiment [1], `Cc1ccc(-c2cccc3[nH]c(-c4n[nH]c5ccc(-c6cncc(NC(=O)C(C)C)c6)nc45)nc23)s1` [Compound 401, N-(5-(3-(4-(5-Methylthiophen-2-yl)-1H-benzo[d]imidazol-2-yl)-1H-pyrazolo [4,3-b]pyridin-5-yl)pyridin-3-yl)isobutyramide] gave an EC50 of 3130 nM. Moreover, in experiment [2], the Emax worked out at 124% and the EC50 was 300 nM.

For the compound `CCNCc1cncc(-c2ccc3[nH]nc(-c4nc5c(-c6cc(F)cc(NCCN(C)C)c6)cccc5[nH]4)c3n2)c1` [Compound 454, N^1-(3-(2-(5-(5-((Ethylamino)methyl)pyridin-3-yl)-1H-pyrazolo[4,3-b]pyridin-3-yl)-1H-benzo[d]imidazol-4-yl)-5-fluorophenyl)-N^2,N^2-dimethylethane-1,2-diamine], the EC50 amounted to 3370 nM in experiment [1] and 62 nM in experiment [2]. Further, in experiment [2], the Emax was found to be 104%.

As to `CC(C)Nc1cncc(-c2ccc3[nH]nc(-c4nc5c(-c6cc(F)cc(NCCN(C)C)c6)cccc5[nH]4)c3n2)c1` [Compound 460, N^1-(3-Fluoro-5-(2-(5-(5-(isopropylamino)pyridin-3-yl)-1H-pyrazolo[4,3-b]pyridin-3-yl)-1H-benzo[d]imidazol-4-yl)phenyl)-N^2,N^2-dimethylethane-1,2-diamine], the results for the EC50 in experiment [1] and in experiment [2] were 1050 nM and 10 nM, respectively. The Emax in experiment [2] amounted to 62%.

In experiment [1], `CCCCC(=O)Nc1cncc(-c2ccc3[nH]nc(-c4nc5c(-c6cc(F)cc(NCCN(C)C)c6)cccc5[nH]4)c3n2)c1` [Compound 467, N-(5-(3-(4-(3-((2-(Dimethylamino)ethyl)amino)-5-fluorophenyl)-1H-benzo [d]imidazol-2-yl)-1H-pyrazolo[4,3-b]pyridin-5-yl)pyridin-3-yl)pentanamide] gave an EC50 of 1300 nM. Moreover, in experiment [2], the Emax was 36%.

In turn, `Cc1ccncc1-c1ccc2[nH]nc(-c3nc4c(-c5cc(F)cc(CNS(C)(=O)=O)c5)cccc4[nH]3)c2n1` [Compound 481, N-(3-Fluoro-5-(2-(5-(4-methylpyridin-3-yl)-1H-pyrazolo[4,3-b]pyridin-3-yl)-1H-benzo[d]imidazol-4-yl)benzyl)methanesulfonamide] returned an EC50 in experiment [1] of 1340 nM. Also, the Emax in experiment [2] is 36%.

`CCCC(=O)Nc1cncc(-c2ccc3[nH]nc(-c4nc5c(-c6cc(F)cc(CNS(C)(=O)=O)c6)cccc5[nH]4)c3n2)c1` [Compound 493, N-(5-(3-(4-(3-Fluoro-5-(methylsulfonamidomethyl)phenyl)-1H-benzo[d]imidazol-2-yl)-1H-pyrazolo[4,3-b]pyridin-5-yl)pyridin-3-yl)butyramide] showed an EC50 in experiment [1] of 3220 nM. Moreover, in experiment [2], the Emax turned out to be 100% and the EC50 turned out to be 900 nM.

`Fc1cccc(-c2cccc3[nH]c(-c4n[nH]c5ccc(C6CCNCC6)nc45)nc23)c1` [Compound 505, 3-(4-(3-Fluorophenyl)-1H-benzo[d]imidazol-2-yl)-5-(piperidin-4-yl)-1H-pyrazolo[4,3-b]pyridine] displayed an EC50 in experiment [1] of 3200 nM. For the same compound, the Emax in experiment [2] stood at 46%.

In experiment [1], `Cn1cc(-c2ccc3[nH]nc(-c4nc5c(-c6cccc(F)c6)cccc5[nH]4)c3n2)cn1` [Compound 508, 3-(4-(3-Fluorophenyl)-1H-benzo[d]imidazol-2-yl)-5-(1-methyl-1H-pyrazol-4-yl)-1H-pyrazolo[4,3-b]pyridine] returned an EC50 of 518 nM. Also, the Emax in experiment [2] worked out at 48%.

In experiment [1], `Cc1ncc(-c2ccc3[nH]nc(-c4nc5c(-c6cccc(F)c6)cccc5[nH]4)c3n2)n1C` [Compound 509, 5-(1,2-Dimethyl-1H-imidazol-5-yl)-3-(4-(3-fluorophenyl)-1H-benzo[d]imidazol-2-yl)-1H-pyrazolo[4,3-b]pyridine] gave an EC50 of 160 nM. In experiment [2], the Emax worked out at 112% and the EC50 stood at 10 nM.

In experiment [1], `NC1CN(c2cncc(-c3ccc4[nH]nc(-c5nc6c(-c7cccc(F)c7)cccc6[nH]5)c4n3)n2)C1` [Compound 510, 1-(6-(3-(4-(3-Fluorophenyl)-1H-benzo[d]imidazol-2-yl)-1H-pyrazolo[4,3-b]pyridin-5-yl)pyrazin-2-yl)azetidin-3-amine] displayed an EC50 of 3240 nM. Besides, in experiment [2], the Emax was 53% and the EC50 was 7 nM.
